Test results taken from PubChem BioAssay AID330 (DTP/NCI, 2004).
“And” between values parts separate entries of the source, which are not always exact repeats. Identical values can stand only once. Toxic doses and inconclusive results are not listed. Rule for the calls: active = survival T/C of 150% or more; inactive = T/C below 125% in these data.

Tested on: P388 leukemia ip, CD2F1 mice, survival T/C
Experiment: NCI In Vivo Anticancer Drug Screen. Data for tumor model P388 Leukemia (intraperitoneal) in CD2F1 (CDF1) mice
Conditions: endpoint: median survival time, higher = longer survival
In short: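 Mice carrying the transplanted tumor received test compound or vehicle. Survival was recorded in each group, and the value is the treated-group measurement divided by that of the vehicle-treated control group.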

[1] = dose: 100.0 mg/kg/injection, schedule: Q01DX001 (ip), vehicle: Klucel (hydroxypropylcellulose) (HPC)
[2] = dose: 200.0 mg/kg/injection, schedule: Q01DX001 (ip), vehicle: Klucel (hydroxypropylcellulose) (HPC)
[3] = dose: 50.0 mg/kg/injection, schedule: Q01DX009 (ip), vehicle: Klucel (hydroxypropylcellulose) (HPC)
[4] = dose: 100.0 mg/kg/injection, schedule: Q01DX009 (ip), vehicle: Klucel (hydroxypropylcellulose) (HPC)
[5] = dose: 200.0 mg/kg/injection, schedule: Q01DX009 (ip), vehicle: Klucel (hydroxypropylcellulose) (HPC)
[6] = dose: 50.0 mg/kg/injection, schedule: Q01DX005 (ip), vehicle: saline with Tween-80
[7] = dose: 100.0 mg/kg/injection, schedule: Q01DX005 (ip), vehicle: saline with Tween-80
[8] = dose: 200.0 mg/kg/injection, schedule: Q01DX005 (ip), vehicle: saline with Tween-80
[9] = dose: 50.0 mg/kg/injection, schedule: Q01DX005 (ip), vehicle: saline
[10] = dose: 100.0 mg/kg/injection, schedule: Q01DX005 (ip), vehicle: saline
[11] = dose: 200.0 mg/kg/injection, schedule: Q01DX005 (ip), vehicle: saline
[12] = dose: 50.0 mg/kg/injection, schedule: Q01DX005 (ip), vehicle: Klucel (hydroxypropylcellulose) (HPC)
[13] = dose: 100.0 mg/kg/injection, schedule: Q01DX005 (ip), vehicle: Klucel (hydroxypropylcellulose) (HPC)
[14] = dose: 200.0 mg/kg/injection, schedule: Q01DX005 (ip), vehicle: Klucel (hydroxypropylcellulose) (HPC)
[15] = dose: 25.0 mg/kg/injection, schedule: Q01DX009 (ip), vehicle: saline with Tween-80
[16] = dose: 100.0 mg/kg/injection, schedule: Q01DX009 (ip), vehicle: saline with Tween-80
[17] = dose: 12.5 mg/kg/injection, schedule: Q01DX009 (ip), vehicle: Klucel (hydroxypropylcellulose) (HPC)
[18] = dose: 25.0 mg/kg/injection, schedule: Q01DX009 (ip), vehicle: Klucel (hydroxypropylcellulose) (HPC)
[19] = dose: 100.0 mg/kg/injection, schedule: Q04DX002 (ip), vehicle: saline with Tween-80
[20] = dose: 200.0 mg/kg/injection, schedule: Q04DX002 (ip), vehicle: saline with Tween-80

Measured: T/C

O=c1c2cc3c(cc2c2cc([N+](=O)[O-])cc4c2n1CC4)OCO3
inactive: dose: 25.0 mg/kg/injection, schedule: Q01DX009 (ip), vehicle: other 98 % of control | dose: 50.0 mg/kg/injection, schedule: Q01DX009 (ip), vehicle: other 92 % of control | dose: 100.0 mg/kg/injection, schedule: Q01DX009 (ip), vehicle: other 90 % of control | dose: 200.0 mg/kg/injection, schedule: Q01DX009 (ip), vehicle: other 100 % of control | dose: 400.0 mg/kg/injection, schedule: Q01DX009 (ip), vehicle: other 104 % of control

O=C1C(N=Nc2ccccc2Cl)C(O)N(c2ccccc2)C(=S)N1c1cccc(Cl)c1Cl (configuration not stated)
inactive: [1] 98 % of control | [2] 103 % of control | dose: 400.0 mg/kg/injection, schedule: Q01DX001 (ip), vehicle: Klucel (hydroxypropylcellulose) (HPC) 97 % of control

COc1cccc(-c2cc(C(=O)O)c3cc4ccccc4cc3n2)c1OC
inactive: [3] 100 % of control | [4] 101 % of control | [5] 100 % of control

O=C(NS(=O)C1C=CCCC1)OC1CCCCC1c1ccccc1 (configuration not stated)
inactive: [6] 99 % of control | [7] 100 % of control | [8] 105 % of control

COC1=C/C(=C\C=C\c2ccccc2)C(OC)=CC1=O
inactive: dose: 2.5 mg/kg/injection, schedule: Q01DX009 (ip), vehicle: saline with Tween-80 102 % of control | dose: 5.0 mg/kg/injection, schedule: Q01DX009 (ip), vehicle: saline with Tween-80 104 % of control | dose: 10.0 mg/kg/injection, schedule: Q01DX009 (ip), vehicle: saline with Tween-80 108 % of control

COc1ccc(OC)c(NC(=O)Nc2ncccn2)c1
inactive: [3] 106 % of control | [4] 100 % of control | [5] 103 % of control

Nc1ccc2ccccc2c1N=Nc1ccccc1
inactive: [3] 117 % of control | [4] 118 % of control | [5] 120 % of control | dose: 400.0 mg/kg/injection, schedule: Q01DX009 (ip), vehicle: Klucel (hydroxypropylcellulose) (HPC) 117 % of control

CC(C(=O)O)N(CCC#N)CCC#N (configuration not stated)
inactive: [9] 95 % of control | [10] 100 % of control | [11] 95 % of control

Cc1ccc(-c2cc3cc4c(cc3[nH]2)Sc2ccccc2O4)cc1
inactive: [1] 98 % of control | [2] 89 % of control

CN1C(=O)Cn2c(nn(CCN3CCCC3)c(=O)c2=O)-c2cc(Cl)ccc21
inactive: dose: 50.0 mg/kg/injection, schedule: Q01DX009 (ip), vehicle: saline 103 % of control | dose: 100.0 mg/kg/injection, schedule: Q01DX009 (ip), vehicle: saline 105 % of control | dose: 200.0 mg/kg/injection, schedule: Q01DX009 (ip), vehicle: saline 103 % of control

CC(=O)OCC1OC(N(O)Cc2ccccc2)C(OC(C)=O)C(OC(C)=O)C1OC(C)=O (configuration not stated)
inactive: [12] 100 % of control | [13] 95 % of control | [14] 86 % of control

Cc1cc(NC(=O)Nc2ccc(C3=NCCN3)cc2)ccc1NC(=O)Nc1ccc(C2=NCCN2)cc1
inactive: dose: 100.0 mg/kg/injection, schedule: Q04DX003 (ip), vehicle: saline 100 % of control | dose: 200.0 mg/kg/injection, schedule: Q04DX003 (ip), vehicle: saline 104 % of control | dose: 400.0 mg/kg/injection, schedule: Q04DX003 (ip), vehicle: saline 109 % of control

Cc1cc[n+](C2=C(Nc3ccccc3)C(=O)c3ccccc3C2=O)cc1
inactive: dose: 12.5 mg/kg/injection, schedule: Q01DX005 (ip), vehicle: saline with Tween-80 106 % of control | dose: 25.0 mg/kg/injection, schedule: Q01DX005 (ip), vehicle: saline with Tween-80 114 % of control | [6] 116 % of control and 122 % of control | [7] 118 % of control

Cc1ccc([SeH])cc1.[Sn]
inactive: [15] 92 % of control | dose: 50.0 mg/kg/injection, schedule: Q01DX009 (ip), vehicle: saline with Tween-80 94 % of control | [16] 86 % of control

CC[n+]1ccc(Nc2ccc(/C=C/c3ccc4cc(Nc5cc[n+](CC)cc5)ccc4[n+]3CC)cc2)cc1
inactive: dose: 3.3 mg/kg/injection, schedule: Q04DX003 (ip), vehicle: saline sonified 113 % of control

CCOC(=O)/C=C(\I)C(=O)OCC
inactive: dose: 6.25 mg/kg/injection, schedule: Q01DX009 (ip), vehicle: Klucel (hydroxypropylcellulose) (HPC) 109 % of control | [17] 100 % of control | [18] 98 % of control

CC1(C)COC(c2c(F)cccc2Cl)=N1
inactive: [6] 100 % of control | [7] 100 % of control | [8] 98 % of control

Clc1ccc2c(ccc3cccnc32)n1
inactive: dose: 50.0 mg/kg/injection, schedule: Q04DX002 (ip), vehicle: saline with Tween-80 100 % of control | [19] 97 % of control | [20] 94 % of control

C/C=C(\C)C(=O)OC1CC(OC(=O)/C(C)=C/C)C2(C)C3C(=O)C=C(C)C2C3C1(C)C (configuration not stated)
inactive: [17] 90 % of control | [18] 96 % of control | [3] 96 % of control | [4] 100 % of control

CCn1c2nc(=O)n(C)c(=O)c-2[n+]([O-])c2cc(Br)c(C)cc21
inactive: [19] 96 % of control | [20] 94 % of control | dose: 400.0 mg/kg/injection, schedule: Q04DX002 (ip), vehicle: saline with Tween-80 96 % of control

Cc1ccc2nc(Nc3nc(C)cc(C)n3)[nH]c2c1
inactive: dose: 60.0 mg/kg/injection, schedule: Q01DX005 (ip), vehicle: Klucel (hydroxypropylcellulose) (HPC) 103 % of control | dose: 120.0 mg/kg/injection, schedule: Q01DX005 (ip), vehicle: Klucel (hydroxypropylcellulose) (HPC) 100 % of control | dose: 240.0 mg/kg/injection, schedule: Q01DX005 (ip), vehicle: Klucel (hydroxypropylcellulose) (HPC) 97 % of control

Cc1nn(-c2ccccc2)c(=O)n2nnnc12
inactive: dose: 100.0 mg/kg/injection, schedule: Q01DX001 (ip), vehicle: saline with Tween-80 96 % of control | dose: 200.0 mg/kg/injection, schedule: Q01DX001 (ip), vehicle: saline with Tween-80 94 % of control | dose: 400.0 mg/kg/injection, schedule: Q01DX001 (ip), vehicle: saline with Tween-80 96 % of control

O=C1c2ccccc2C(=O)c2c(NCC3CCCN4CCCCC34)cccc21 (configuration not stated)
inactive: [12] 100 % of control | [13] 98 % of control | [14] 100 % of control

Cc1cc(C)cc(-n2cccc2C(=O)O)c1
inactive: dose: 60.0 mg/kg/injection, schedule: Q01DX005 (ip), vehicle: saline with Tween-80 93 % of control | dose: 120.0 mg/kg/injection, schedule: Q01DX005 (ip), vehicle: saline with Tween-80 99 % of control | dose: 240.0 mg/kg/injection, schedule: Q01DX005 (ip), vehicle: saline with Tween-80 100 % of control

C=[CH][Sn]([CH]=C)([CH2]C)[CH2]C
inactive: [9] 102 % of control | [10] 104 % of control | [11] 114 % of control

CN(C)CCC(OC(=O)C(c1ccccc1)c1ccccc1)c1ccccc1 (configuration not stated)
inactive: [6] 101 % of control | [7] 103 % of control

O=C1C=CC(=O)C(c2ccc(Cl)cc2)=C1
inactive: dose: 12.5 mg/kg/injection, schedule: Q01DX009 (ip), vehicle: saline with Tween-80 98 % of control | [15] 90 % of control | [16] 90 % of control
